Experimental data as given in ChEMBL document CHEMBL1201862, “PubChem BioAssay data set” (2004).
Calls of active or inactive are those of the source.

Experiments:
[1] = viability loss in Vero cells – cytotoxicity control for Vif-APOBEC3G degradation inhibitor project, dose response (AID 1117358); format: functional; conditions: Vero
[2] = molecular target: T1, Calpain-2 catalytic subunit (Sus scrofa, UniProt P43367); assay: m-calpain protease blockers, concentration series – biochemical, fluorogenic peptide substrate, dose response (AID 1420); format: functional
T1 sequence (P43367 whole entry): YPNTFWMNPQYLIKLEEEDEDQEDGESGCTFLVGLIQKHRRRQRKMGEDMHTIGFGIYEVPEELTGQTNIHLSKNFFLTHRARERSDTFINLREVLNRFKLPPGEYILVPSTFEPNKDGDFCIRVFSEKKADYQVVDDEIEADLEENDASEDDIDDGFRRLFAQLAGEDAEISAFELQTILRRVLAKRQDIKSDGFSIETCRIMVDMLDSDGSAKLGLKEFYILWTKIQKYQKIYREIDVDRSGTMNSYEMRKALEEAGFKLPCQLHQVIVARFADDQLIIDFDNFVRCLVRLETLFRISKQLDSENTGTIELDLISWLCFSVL

[3] = molecular target: Large T antigen (Simian virus 40, UniProt P03070); format: functional, Betapolyomavirus macacae;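 also: Confirmatory-stage PubChem screen for compounds that inhibit SV40 T antigen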
[4] = NIH-3T3 fibroblast cytotoxicity, dose response, cytotoxicity control, cell-based, fluorescence, Alamar Blue, secondary assay (AID 2327); format: functional;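 also: NIH-3T3 mouse fibroblasts cultured with fluconazole at 8 µg/mL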
[5] = molecular target: E3 ubiquitin-protein ligase UHRF1 (Homo sapiens, UniProt Q96T88); assay: Counterscreen for inhibitors of 5-meCpG-binding domain protein 2 (MBD2): TRFRET-based biochemical high throughput dose response assay to identify inhibitors of binding of ubiquitin-like with PHD and ring finger domains 1 (UHRF1) to methylated oligonucleotide.
[6] = molecular target: T2, Mannose-6-phosphate isomerase (Homo sapiens, UniProt P34949); assay: MPI enzyme activity inhibition – biochemical, fluorescence intensity, coupled assay, primary screen (AID 1209)
T2 sequence (P34949 whole entry): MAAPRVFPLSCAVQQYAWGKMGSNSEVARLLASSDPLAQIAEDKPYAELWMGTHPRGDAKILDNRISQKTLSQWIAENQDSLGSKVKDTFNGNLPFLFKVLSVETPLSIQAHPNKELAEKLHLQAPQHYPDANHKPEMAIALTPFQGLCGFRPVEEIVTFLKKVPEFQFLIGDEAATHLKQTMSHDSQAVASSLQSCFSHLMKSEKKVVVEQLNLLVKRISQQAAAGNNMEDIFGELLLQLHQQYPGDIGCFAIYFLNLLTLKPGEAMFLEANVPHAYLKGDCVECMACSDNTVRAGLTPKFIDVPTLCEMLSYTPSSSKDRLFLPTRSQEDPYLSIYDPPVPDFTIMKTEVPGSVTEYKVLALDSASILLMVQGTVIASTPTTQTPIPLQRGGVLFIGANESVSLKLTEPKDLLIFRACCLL

[7] = molecular target: T3, Aminopeptidase N (Plasmodium falciparum FcB1/Columbia, UniProt O96935); assay: malaria alanyl aminopeptidase activity blockers – biochemical, fluorogenic H-Leu-NHMec substrate, 1536-well (AID 1445); set-up: species or system Plasmodium falciparum 3D7, 3D7
T3 sequence (O96935 whole entry): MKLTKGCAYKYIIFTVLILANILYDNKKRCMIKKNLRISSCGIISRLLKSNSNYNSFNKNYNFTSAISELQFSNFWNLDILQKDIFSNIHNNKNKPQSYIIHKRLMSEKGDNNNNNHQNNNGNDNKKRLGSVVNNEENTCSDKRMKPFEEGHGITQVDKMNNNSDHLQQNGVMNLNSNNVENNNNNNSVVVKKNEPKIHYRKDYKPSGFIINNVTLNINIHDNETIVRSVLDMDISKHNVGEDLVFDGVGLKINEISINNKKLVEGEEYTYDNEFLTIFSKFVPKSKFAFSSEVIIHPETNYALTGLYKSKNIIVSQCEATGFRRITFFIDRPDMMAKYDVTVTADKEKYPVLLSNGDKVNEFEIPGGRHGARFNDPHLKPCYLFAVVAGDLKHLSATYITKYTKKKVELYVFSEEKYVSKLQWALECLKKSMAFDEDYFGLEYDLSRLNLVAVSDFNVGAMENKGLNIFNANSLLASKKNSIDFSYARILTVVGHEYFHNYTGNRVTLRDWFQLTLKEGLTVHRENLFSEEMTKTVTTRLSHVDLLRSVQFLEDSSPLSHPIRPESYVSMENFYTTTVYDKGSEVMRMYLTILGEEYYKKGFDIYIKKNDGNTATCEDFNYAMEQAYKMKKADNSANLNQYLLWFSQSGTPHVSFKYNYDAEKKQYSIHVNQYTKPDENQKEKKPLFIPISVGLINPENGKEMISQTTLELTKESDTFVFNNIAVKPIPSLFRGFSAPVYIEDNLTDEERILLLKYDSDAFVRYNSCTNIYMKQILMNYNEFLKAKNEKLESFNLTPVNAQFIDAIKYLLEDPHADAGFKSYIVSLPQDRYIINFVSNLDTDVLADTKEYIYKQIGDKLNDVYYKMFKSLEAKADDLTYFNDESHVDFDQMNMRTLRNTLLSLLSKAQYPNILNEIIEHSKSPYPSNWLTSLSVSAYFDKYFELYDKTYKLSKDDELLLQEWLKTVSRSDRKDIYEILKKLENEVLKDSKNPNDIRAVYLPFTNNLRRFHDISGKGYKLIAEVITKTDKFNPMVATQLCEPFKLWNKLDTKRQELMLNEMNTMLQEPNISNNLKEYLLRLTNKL

[8] = molecular target: T4, Caspase-6 (Homo sapiens, UniProt P55212); assay: inhibition of CASP6 peptide cleavage – biochemical, VEID-R110 fluorescence, cherry-pick, dose response (AID 720632)
T4 sequence (P55212 whole entry): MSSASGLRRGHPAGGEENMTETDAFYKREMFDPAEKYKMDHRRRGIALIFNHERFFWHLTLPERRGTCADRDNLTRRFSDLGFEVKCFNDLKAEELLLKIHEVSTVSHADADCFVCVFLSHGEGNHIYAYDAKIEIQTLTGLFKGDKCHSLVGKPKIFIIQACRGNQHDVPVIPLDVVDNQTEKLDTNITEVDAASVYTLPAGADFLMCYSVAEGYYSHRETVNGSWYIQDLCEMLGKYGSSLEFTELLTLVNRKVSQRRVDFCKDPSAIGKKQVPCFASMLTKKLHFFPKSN

[9] = molecular target: Induced myeloid leukemia cell differentiation protein Mcl-1 (Homo sapiens, UniProt Q07820); format: functional
[10] = fluconazole-exposed Candida albicans growth modulators – fluorescence, retest, confirmation (AID 2467); format: functional, cell-based
[11] = molecular target: Albumin (Bos taurus, UniProt P02769); assay: Counterscreen for inhibitors of T-cell receptor (TCR)-CD3 interaction: Fluorescence-based biochemical high throughput dose response assay to identify inhibitors of T-cell receptor (TCR)-CD3 interaction using a TAMRA-labeled BSA probe.; format: functional
[12] = molecular target: T5, Histone-lysine N-methyltransferase NSD2 (Homo sapiens, UniProt O96028); format: biochemical
T5 sequence (O96028 whole entry): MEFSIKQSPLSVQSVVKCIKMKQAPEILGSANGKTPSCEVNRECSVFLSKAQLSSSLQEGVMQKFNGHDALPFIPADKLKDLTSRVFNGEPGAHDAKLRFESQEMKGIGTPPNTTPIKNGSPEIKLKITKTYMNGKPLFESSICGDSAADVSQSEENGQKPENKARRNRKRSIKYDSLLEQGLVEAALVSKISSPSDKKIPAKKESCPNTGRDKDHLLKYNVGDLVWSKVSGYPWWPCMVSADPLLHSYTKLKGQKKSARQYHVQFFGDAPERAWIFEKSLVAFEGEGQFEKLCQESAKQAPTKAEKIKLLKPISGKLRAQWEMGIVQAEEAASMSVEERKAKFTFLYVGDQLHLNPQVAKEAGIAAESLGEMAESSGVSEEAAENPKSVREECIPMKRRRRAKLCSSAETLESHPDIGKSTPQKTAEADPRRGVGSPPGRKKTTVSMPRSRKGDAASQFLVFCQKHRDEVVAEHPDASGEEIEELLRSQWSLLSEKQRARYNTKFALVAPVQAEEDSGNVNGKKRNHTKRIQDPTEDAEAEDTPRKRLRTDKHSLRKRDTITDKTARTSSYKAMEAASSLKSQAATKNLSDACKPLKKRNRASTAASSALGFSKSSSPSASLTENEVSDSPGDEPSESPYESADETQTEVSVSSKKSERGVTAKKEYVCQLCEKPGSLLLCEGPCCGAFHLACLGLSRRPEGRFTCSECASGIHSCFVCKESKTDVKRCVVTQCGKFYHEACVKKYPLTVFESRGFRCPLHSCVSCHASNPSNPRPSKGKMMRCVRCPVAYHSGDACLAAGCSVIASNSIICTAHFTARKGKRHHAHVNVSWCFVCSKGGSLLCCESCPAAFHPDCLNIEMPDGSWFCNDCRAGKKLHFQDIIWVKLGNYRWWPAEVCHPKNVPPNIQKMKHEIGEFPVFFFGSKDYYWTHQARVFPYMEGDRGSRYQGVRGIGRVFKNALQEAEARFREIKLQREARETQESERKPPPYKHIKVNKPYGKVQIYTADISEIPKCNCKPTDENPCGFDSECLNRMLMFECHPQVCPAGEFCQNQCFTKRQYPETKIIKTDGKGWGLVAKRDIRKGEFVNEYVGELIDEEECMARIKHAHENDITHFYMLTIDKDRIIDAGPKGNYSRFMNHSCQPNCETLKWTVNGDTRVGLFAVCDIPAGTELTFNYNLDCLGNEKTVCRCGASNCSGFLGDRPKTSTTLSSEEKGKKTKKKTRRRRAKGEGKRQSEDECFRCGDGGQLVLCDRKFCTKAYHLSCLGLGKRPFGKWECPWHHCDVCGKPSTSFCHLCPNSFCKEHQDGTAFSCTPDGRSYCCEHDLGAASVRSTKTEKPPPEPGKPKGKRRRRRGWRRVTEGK

[13] = OVCAR8 cell viability loss – plate reader, dry powder samples, PAX8 project, dose response (AID 743197); format: functional, cell-based; conditions: OVCAR-8
[14] = general mammalian cell viability loss – activator set, cherry-pick, cytotoxicity control for miR-122 modulator project, dose response (AID 720690); format: functional, cell-based;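 also: HEK293T human cells scored for general mammalian cytotoxicity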
[15] = lung carcinoma cell viability loss – CellTiter-Glo luminescence, dry powder, set 17, dose response (AID 1117284); format: functional, cell-based; conditions: A549
[16] = OVCAR-3 cell viability loss – plate reader, dry powder samples, PAX8 inhibitor project, dose response (AID 743044); format: functional, cell-based
[17] = molecular target: Paired box protein Pax-8 (Homo sapiens, UniProt Q06710); assay: PAX8 transcriptional activity inhibition in RMG-I – RMG-I cells, luciferase, cherry-pick, dose response (AID 687027); format: functional, cell-based;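 also: luciferase reporter driven by Pax8 target thyroperoxidase promoter measured by SteadyGlo luminescence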
[18] = viability loss in A549 lung cells – cell-based, 24 h, CellTiter-Glo luminescence, cherry-picks, cytotoxicity control, dose response (AID 1053115); format: functional; conditions: A549, 24 h

Sequence of Paired box protein Pax-8 (Q06710 whole entry): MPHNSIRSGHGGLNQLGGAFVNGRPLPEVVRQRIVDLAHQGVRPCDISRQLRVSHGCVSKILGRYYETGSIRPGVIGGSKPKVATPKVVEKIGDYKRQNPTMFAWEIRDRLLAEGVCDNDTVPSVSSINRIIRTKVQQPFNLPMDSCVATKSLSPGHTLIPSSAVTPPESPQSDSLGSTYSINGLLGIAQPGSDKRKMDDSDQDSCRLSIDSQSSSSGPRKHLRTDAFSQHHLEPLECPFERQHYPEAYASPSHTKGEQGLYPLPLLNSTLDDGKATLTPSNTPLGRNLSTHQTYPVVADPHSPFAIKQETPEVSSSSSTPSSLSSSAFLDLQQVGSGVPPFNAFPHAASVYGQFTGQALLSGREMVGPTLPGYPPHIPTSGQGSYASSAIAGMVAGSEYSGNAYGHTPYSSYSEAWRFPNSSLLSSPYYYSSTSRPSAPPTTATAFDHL
Sequence of Albumin (P02769 whole entry): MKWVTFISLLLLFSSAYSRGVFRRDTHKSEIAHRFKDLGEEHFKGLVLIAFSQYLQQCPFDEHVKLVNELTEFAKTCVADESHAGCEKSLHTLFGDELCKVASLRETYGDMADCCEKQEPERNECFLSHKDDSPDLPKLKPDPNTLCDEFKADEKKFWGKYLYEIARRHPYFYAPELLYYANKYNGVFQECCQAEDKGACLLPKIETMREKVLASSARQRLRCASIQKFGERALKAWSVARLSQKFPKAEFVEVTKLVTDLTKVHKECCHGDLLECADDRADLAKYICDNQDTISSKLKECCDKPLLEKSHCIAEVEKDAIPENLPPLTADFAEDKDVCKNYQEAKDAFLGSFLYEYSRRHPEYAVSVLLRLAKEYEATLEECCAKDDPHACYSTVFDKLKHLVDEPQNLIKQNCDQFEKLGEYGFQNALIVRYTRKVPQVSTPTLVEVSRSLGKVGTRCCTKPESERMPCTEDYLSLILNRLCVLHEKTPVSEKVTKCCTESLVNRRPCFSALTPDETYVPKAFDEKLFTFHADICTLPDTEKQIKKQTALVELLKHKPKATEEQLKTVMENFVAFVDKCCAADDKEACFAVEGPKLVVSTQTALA
Sequence of Large T antigen (P03070 whole entry): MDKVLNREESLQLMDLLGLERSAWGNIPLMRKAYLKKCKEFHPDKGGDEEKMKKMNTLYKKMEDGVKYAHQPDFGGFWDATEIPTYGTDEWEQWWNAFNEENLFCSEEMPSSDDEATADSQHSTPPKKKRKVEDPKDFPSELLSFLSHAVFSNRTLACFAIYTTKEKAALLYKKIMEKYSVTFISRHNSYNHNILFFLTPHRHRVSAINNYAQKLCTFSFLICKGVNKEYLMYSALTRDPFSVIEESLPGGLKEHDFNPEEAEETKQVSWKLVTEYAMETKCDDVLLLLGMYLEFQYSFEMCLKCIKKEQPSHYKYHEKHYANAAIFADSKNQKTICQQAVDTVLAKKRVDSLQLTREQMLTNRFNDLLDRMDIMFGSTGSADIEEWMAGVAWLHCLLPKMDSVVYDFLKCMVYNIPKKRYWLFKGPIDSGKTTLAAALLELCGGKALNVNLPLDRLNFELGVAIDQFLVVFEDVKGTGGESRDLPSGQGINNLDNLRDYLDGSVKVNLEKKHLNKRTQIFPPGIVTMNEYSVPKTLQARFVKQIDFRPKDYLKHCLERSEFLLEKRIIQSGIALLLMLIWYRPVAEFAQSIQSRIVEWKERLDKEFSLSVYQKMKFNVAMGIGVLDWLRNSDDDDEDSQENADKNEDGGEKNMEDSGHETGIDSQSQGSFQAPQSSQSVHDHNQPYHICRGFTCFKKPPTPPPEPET
Sequence of E3 ubiquitin-protein ligase UHRF1 (Q96T88 whole entry, the tested form may be a part): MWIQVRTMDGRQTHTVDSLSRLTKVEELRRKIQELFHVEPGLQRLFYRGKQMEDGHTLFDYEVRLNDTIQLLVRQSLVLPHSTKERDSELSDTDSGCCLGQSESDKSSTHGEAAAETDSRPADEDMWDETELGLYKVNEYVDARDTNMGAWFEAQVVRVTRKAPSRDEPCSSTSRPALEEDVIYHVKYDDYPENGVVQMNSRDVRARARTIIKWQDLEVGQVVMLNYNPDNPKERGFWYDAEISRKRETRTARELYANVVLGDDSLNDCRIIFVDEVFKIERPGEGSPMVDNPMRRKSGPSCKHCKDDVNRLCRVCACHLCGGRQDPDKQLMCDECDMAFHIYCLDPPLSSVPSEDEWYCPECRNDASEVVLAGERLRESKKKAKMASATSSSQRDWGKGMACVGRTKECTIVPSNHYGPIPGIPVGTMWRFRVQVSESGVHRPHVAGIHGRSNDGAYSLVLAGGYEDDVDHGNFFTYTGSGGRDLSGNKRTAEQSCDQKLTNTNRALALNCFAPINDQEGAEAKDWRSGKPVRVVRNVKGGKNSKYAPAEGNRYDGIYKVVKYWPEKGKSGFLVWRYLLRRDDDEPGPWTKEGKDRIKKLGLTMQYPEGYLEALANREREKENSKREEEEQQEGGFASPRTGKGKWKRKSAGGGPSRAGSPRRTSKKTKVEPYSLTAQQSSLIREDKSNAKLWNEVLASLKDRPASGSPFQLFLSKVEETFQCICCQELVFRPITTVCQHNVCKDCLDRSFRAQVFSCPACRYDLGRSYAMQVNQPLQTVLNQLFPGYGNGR
Sequence of Induced myeloid leukemia cell differentiation protein Mcl-1 (Q07820 whole entry): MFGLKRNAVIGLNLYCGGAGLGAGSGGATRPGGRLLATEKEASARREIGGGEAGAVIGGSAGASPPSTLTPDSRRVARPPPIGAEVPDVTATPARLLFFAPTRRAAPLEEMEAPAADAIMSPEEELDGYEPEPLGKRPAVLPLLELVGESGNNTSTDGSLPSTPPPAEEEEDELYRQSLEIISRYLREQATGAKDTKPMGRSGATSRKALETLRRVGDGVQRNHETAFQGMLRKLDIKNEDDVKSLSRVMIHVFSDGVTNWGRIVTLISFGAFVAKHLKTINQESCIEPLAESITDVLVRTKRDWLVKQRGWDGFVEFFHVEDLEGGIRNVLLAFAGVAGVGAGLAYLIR

In the case of `Cc1ccc(Cl)cc1N1CCN(C(=O)Cc2cn(C)c3ccccc23)CC1`, the CC50 [1] is reported as > 40 µM (active) and the IC50 [2] is reported as 6.39 µM (not active).

With `COc1ccc(/C=N/NC(=O)c2cc(O)c(O)c(O)c2)cc1Cn1cc([N+](=O)[O-])cn1` the IC50 [3] was 0.99 µM (active), the EC50 [4] was 30 µM (active) and the IC50 [5] was > 43.8 µM (inactive). The IC50 [6] was 12 µM (active), the IC50 [7] was 92.6 µM (active) and the AC50 [8] was 0.873 µM (active). For the same compound, the IC50 [9] was 4.31 µM (active), the EC50 [10] was 3.25 µM (active) and the IC50 [11] was > 94.1 µM (inactive). The AC50 [12] was 5.22 µM (active).

With `C[C@@H](O)C#Cc1ccc2c(c1)O[C@H](CN(C)Cc1ccc(-c3ccccc3)cc1)[C@@H](C)CN([C@@H](C)CO)S2(=O)=O` the AC50 [13] was > 70 µM (inactive), the AC50 [14] was 19.4 µM (active) and the AC50 [15] was 28.6 µM (active). The AC50 [16] was 50.2 µM (active), the AC50 [17] was 4.84 µM (active) and the AC50 [18] was 51.8 µM (active).
